{"source": "patent US20230114241A1", "about": "“METHODS OF TREATING EPILEPSY USING THE SAME” (Trevena, Inc., priority 2019, published 2023)", "data": [{"molecular_target": "human sphingosine-1-phosphate receptor 1 (S1P1) (Homo sapiens, UniProt P21453)", "sequence (P21453 whole entry)": "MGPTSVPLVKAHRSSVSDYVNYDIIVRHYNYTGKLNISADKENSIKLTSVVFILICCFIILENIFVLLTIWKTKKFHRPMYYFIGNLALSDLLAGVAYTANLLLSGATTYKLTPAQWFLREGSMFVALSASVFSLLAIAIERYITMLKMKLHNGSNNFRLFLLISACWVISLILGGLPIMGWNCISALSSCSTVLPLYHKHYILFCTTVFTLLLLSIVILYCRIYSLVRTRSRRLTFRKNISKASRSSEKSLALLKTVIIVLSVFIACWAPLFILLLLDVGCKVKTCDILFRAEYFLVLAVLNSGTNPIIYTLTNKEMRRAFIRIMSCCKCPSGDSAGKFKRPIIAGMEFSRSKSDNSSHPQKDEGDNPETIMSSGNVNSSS", "experiment": "Inhibition of cAMP production (HTRF cAMP HiRange), S1P1 CHO-K1 cells", "type": "cell-based", "conditions": "inhibition of cAMP production, S1P1; read-out: hS1P1 CAMP pEC50 (converted)", "description": "(§1) Stable clonal Chinese hamster ovary K1 (CHO-K1) cells co-expressing EA-β-arrestin2 and the human sphingosine-1-phosphate receptor 1 (NM_001400, S1P1) with a C-terminal Prolink™ tag were purchased from DiscoverX corporation (Cat #: 93-0207C2).\n(§2) Cell lines were cultured in AssayComplete™ Media 6 (DiscoverX Corporation, Cat #: 920018GF2) at 37° C. and 5% CO2 in a humidified CO2 and temperature-controlled incubator. To begin assay plating, cells were washed with Dulbecco's phosphate buffered saline (CellGro, Cat #: 21-031-CV) and lifted from the culturing flask by incubation (37° C., 5 min) with CellStripper (Cellgro, Cat #: 25-056-CI). […] Plated cells were incubated overnight at 37° C. and 5% CO2 in a humidified CO2 and temperature-controlled incubator.\n(§3) Agonist-promoted G-protein responses were determined by measuring changes in intracellular cAMP using the HTRF® cAMP HiRange kit (CisBio, Cat #: 62AM6PEJ) based on time-resolved fluorescence resonance energy transfer (TR-FRET) technology. […] Following a 30-minute incubation at 37° C. and 5% CO2 in a humidified CO2 and temperature-controlled incubator, the components of the cAMP HiRange kit were added as per the manufacturer's instructions. After an hour incubation at room temperature, plates were analyzed by a BMG PheraStar microplate reader.\n(§4) These values are normalized to fingolimod, a known agonist of the sphingosine-1-phosphate 1 receptor.", "units": {"EC50": "nM"}, "values": [{"smiles": "Cc1ccc2oc(-c3ccc4c(c3)nnn4C(C)C)nc2c1", "note": "[Compound 419, 2-(1-isopropyl-1H-benzo[d][1,2,3]triazol-5-yl)-5-methyl-benzo[d]oxazole]", "EC50": "< 316"}, {"smiles": "Cc1ccc2oc(-c3ccc4c(c3)nnn4CC(C)C)nc2c1", "note": "[Compound 437, 2-(1-isobutyl-1H-benzo[d][1,2,3]triazol-5-yl)-5-methyl-benzo[d]oxazole]", "EC50": "< 316"}, {"smiles": "Cc1occc1-c1noc(-c2ccc3c(c2)nnn3CC(C)(C)O)n1", "note": "[Compound 492, 2-methyl-1-{5-[3-(2-methylfuran-3-yl)-1,2,4-oxadiazol-5-yl]-1H-1,2,3-benzotriazol-1-yl}propan-2-ol]", "EC50": "> 316"}, {"smiles": "CC(C)n1nnc2cc(-c3nc4c(Br)cccc4o3)ccc21", "note": "[Compound 428, 4-bromo-2-(1-isopropylbenzotriazol-5-yl)-1,3-benzoxazole]", "EC50": "> 316"}, {"smiles": "CC(C)(O)Cn1nnc2cc(-c3nc(-c4ccncc4C(F)(F)F)no3)ccc21", "note": "[Compound 460, 2-methyl-1-(5-{3-[3-(trifluoromethyl)pyridin-4-yl]-1,2,4-oxadiazol-5-yl}-1H-1,2,3-benzotriazol-1-yl)propan-2-ol]", "EC50": "> 316"}, {"smiles": "Cc1cccc2nc(-c3ccc4c(c3)nnn4C(C)C)oc12", "note": "[Compound 421, 2-(1-isopropyl-1H-benzo[d][1,2,3]triazol-5-yl)-7-methyl-benzo[d]oxazole]", "EC50": "> 316"}]}, {"molecular_target": "human sphingosine-1-phosphate receptor 1 (S1P1) (Homo sapiens, UniProt P21453)", "experiment": "Inhibition of cAMP production (HTRF cAMP HiRange), S1P1 CHO-K1 cells", "type": "cell-based", "conditions": "inhibition of cAMP production; potency; read-out: hS1P1 CAMP pEC50 (converted)", "description": "as §1, §2, §3, §4", "units": {"EC50": "nM"}, "values": [{"smiles": "Cc1ccccc1-c1noc(-c2ccc3c(c2)nnn3C2CCCC2)n1", "note": "[Compound 175, 1-cyclopentyl-5-[3-(2-methylphenyl)-1,2,4-oxadiazol-5-yl]-1H-1,2,3-benzotriazole]", "EC50": "< 316"}, {"smiles": "COc1cccc(-c2nc(-c3ccc4c(c3)nnn4C3CCCC3)no2)c1", "note": "[Compound 130, 3-(1-cyclopentyl-1H-benzo[d][1,2,3]triazol-5-yl)-5-(3-methoxy-phenyl)-1,2,4-oxadiazole]", "EC50": "> 316"}, {"smiles": "O=C(O)CCn1nnc2cc(-c3noc(-c4ccccc4Br)n3)ccc21", "note": "[Compound 134, 3-(5-(5-(2-bromophenyl)-1,2,4-oxadiazol-3-yl)-1H-benzo[d][1,2,3]triazol-1-yl)propanoic acid]", "EC50": "> 316"}, {"smiles": "CCC1(CC)CC(=O)c2cc(-c3nnc(-c4ccccc4OC)s3)ccc2O1", "note": "[Compound 178, 2,2-diethyl-6-(5-(2-methoxyphenyl)-1,3,4-thiadiazol-2-yl)chroman-4-one]", "EC50": "> 316"}, {"smiles": "CCC1(CC)CC(=O)c2cc(-c3nnc(-c4cccnc4)s3)ccc2O1", "note": "[Compound 104, 2,2-diethyl-6-(5-(pyridin-3-yl)-1,3,4-thiadiazol-2-yl)chroman-4-one]", "EC50": "< 316"}, {"smiles": "Cc1ccncc1-c1noc(-c2ccc3c(c2)nnn3C(C)C)n1", "note": "[Compound 101, 5-[3-(4-methylpyridin-3-yl)-1,2,4-oxadiazol-5-yl]-1-(propan-2-yl)-1H-1,2,3-benzotriazole]", "EC50": "< 316"}, {"smiles": "COC(=O)NS(=O)(=O)n1c(=O)oc2cc(-c3nnc(-c4ccccc4OC)o3)ccc21", "note": "[Compound 342, methyl N-({6-[5-(2-methoxyphenyl)-1,3,4-oxadiazol-2-yl]-2-oxo-2,3-dihydro-1,3-benzoxazol-3-yl}sulfonyl)carbamate]", "EC50": "> 316"}, {"smiles": "CCC1(CC)CC(=O)c2cc(-c3nc(-c4ccccn4)no3)ccc2O1", "note": "[Compound 111, 2,2-diethyl-6-[3-(2-pyridyl)-1,2,4-oxadiazol-5-yl]chroman-4-one]", "EC50": "> 316"}, {"smiles": "OCCn1nnc2cc(-c3noc(-c4ccccc4Br)n3)ccc21", "note": "[Compound 238, 2-(5-(5-(2-bromo-phenyl)-1,2,4-oxadiazol-3-yl)-1H-benzo[d][1,2,3]triazol-1-yl)ethanol]", "EC50": "> 316"}, {"smiles": "Cc1oc(-c2ccc3c(c2)nnn3C(C)C)nc1-c1ccc(Cl)cc1", "note": "[Compound 50, 5-[4-(4-chlorophenyl)-5-methyl-1,3-oxazol-2-yl]-1-(propan-2-yl)-1H-1,2,3-benzotriazole]", "EC50": "> 316"}, {"smiles": "CCC1(CC)CC(=O)c2cc(-c3nc(-c4sccc4C)no3)ccc2O1", "note": "[Compound 265, 2,2-diethyl-6-(3-(3-methylthiophen-2-yl)-1,2,4-oxadiazol-5-yl)chroman-4-one]", "EC50": "< 316"}, {"smiles": "Cc1ccccc1-c1noc(-c2ccc3c(c2)nnn3C2CCCCC2)n1", "note": "[Compound 245, 1-cyclohexyl-5-[3-(2-methylphenyl)-1,2,4-oxadiazol-5-yl]-1H-1,2,3-benzotriazole]", "EC50": "> 316"}, {"smiles": "FC(F)(F)c1cc(-c2noc(-c3ccc4c(c3)nnn4C3CCCC3)n2)ccc1OCc1cccnc1", "note": "[Compound 4, 1-cyclopentyl-5-{3-[4-(pyridin-3-ylmethoxy)-3-(trifluoromethyl)phenyl]-1,2,4-oxadiazol-5-yl}-1H-1,2,3-benzotriazole]", "EC50": "> 316"}, {"smiles": "Cc1ncc(-c2nc(-c3ccc4c(c3)nnn4C(C)C)no2)nc1C", "note": "[Compound 133, 5-(5,6-dimethylpyrazin-2-yl)-3-(1-isopropyl-1H-benzo[d][1,2,3]triazol-5-yl)-1,2,4-oxadiazole]", "EC50": "> 316"}, {"smiles": "N#Cc1cc(-c2nnc(-c3ccc4[nH]ncc4c3)o2)ccc1NCC1CC1", "note": "[Compound 352]", "EC50": "< 316"}, {"smiles": "CC(C)n1nnc2cc(-c3noc(C4CCOCC4)n3)ccc21", "note": "[Compound 89, 5-[5-(oxan-4-yl)-1,2,4-oxadiazol-3-yl]-1-(propan-2-yl)-1H-1,2,3-benzotriazole]", "EC50": "> 316"}, {"smiles": "Cc1ccc(-c2noc(-c3ccc4c(c3)nnn4C3CCCCC3)n2)cc1", "note": "[Compound 117, 1-cyclohexyl-5-[3-(4-methylphenyl)-1,2,4-oxadiazol-5-yl]-1H-1,2,3-benzotriazole]", "EC50": "> 316"}, {"smiles": "CCC1(CC)CC(=O)c2cc(-c3nc(-c4ccnc(C)c4)no3)ccc2O1", "note": "[Compound 315, 2,2-diethyl-6-(3-(2-methylpyridin-4-yl)-1,2,4-oxadiazol-5-yl)chroman-4-one]", "EC50": "< 316"}, {"smiles": "CCC1(CC)CC(=O)c2cc(-c3nc(-c4ccc(C(N)=O)cc4)no3)ccc2O1", "note": "[Compound 179, 4-(5-(2,2-diethyl-4-oxochroman-6-yl)-1,2,4-oxadiazol-3-yl)benzamide]", "EC50": "< 316"}, {"smiles": "Brc1ccccc1-c1noc(-c2ccc3[nH]nnc3c2)n1", "note": "[Compound 190, 5-[3-(2-bromophenyl)-1,2,4-oxadiazol-5-yl]-1H-1,2,3-benzotriazole]", "EC50": "> 316"}, {"smiles": "N#Cc1cc(-c2nc(-c3ccc4c(c3)CCC(=O)N4)no2)ccc1NCCF", "note": "[Compound 343, 2-[(2-fluoroethyl)amino]-5-[3-(2-oxo-1,2,3,4-tetrahydroquinolin-6-yl)-1,2,4-oxadiazol-5-yl]benzonitrile]", "EC50": "< 316"}, {"smiles": "Cc1ccccc1-c1noc(-c2ccc3c(c2)nnn3CC2CC2)n1", "note": "[Compound 288, 1-(cyclopropylmethyl)-5-[3-(2-methylphenyl)-1,2,4-oxadiazol-5-yl]-1H-1,2,3-benzotriazole]", "EC50": "> 316"}, {"smiles": "CC(C)n1nnc2cc(-c3nc(-c4ccc5ccccc5n4)no3)ccc21", "note": "[Compound 168, 2-{5-[1-(propan-2-yl)-1H-1,2,3-benzotriazol-5-yl]-1,2,4-oxadiazol-3-yl}quinoline]", "EC50": "> 316"}, {"smiles": "CC(C)CCn1nnc2cc(-c3nc(-c4ccccc4)no3)ccc21", "note": "[Compound 271, 1-(3-methylbutyl)-5-(3-phenyl-1,2,4-oxadiazol-5-yl)-1H-1,2,3-benzotriazole]", "EC50": "> 316"}, {"smiles": "COc1ccc(-c2noc(-c3ccc4c(c3)nnn4C3CCCC3)n2)c2ccccc12", "note": "[Compound 91, 1-cyclopentyl-5-[3-(4-methoxynaphthalen-1-yl)-1,2,4-oxadiazol-5-yl]-1H-1,2,3-benzotriazole]", "EC50": "> 316"}, {"smiles": "CC(C)Oc1ccc(-c2nc(-c3ccc4c(c3)nnn4C3CCCC3)no2)cc1", "note": "[Compound 121, 3-(1-cyclopentyl-1H-benzo[d][1,2,3]triazol-5-yl)-5-(4-isopropoxyphenyl)-1,2,4-oxadiazole]", "EC50": "> 316"}, {"smiles": "CC(C)n1nnc2cc(-c3nc(-c4ccc(Cl)s4)no3)ccc21", "note": "[Compound 170, 5-[3-(5-chlorothiophen-2-yl)-1,2,4-oxadiazol-5-yl]-1-(propan-2-yl)-1H-1,2,3-benzotriazole]", "EC50": "> 316"}, {"smiles": "COc1ccccc1-c1nnc(-c2ccc3c(c2)oc(=O)n3C)o1", "note": "[Compound 350, 6-[5-(2-methoxyphenyl)-1,3,4-oxadiazol-2-yl]-3-methyl-2,3-dihydro-1,3-benzoxazol-2-one]", "EC50": "> 316"}, {"smiles": "N#Cc1cc(-c2nc(-c3ccc4c(c3)CCC(=O)N4)no2)ccc1NCC1CC1", "note": "[Compound 302, 2-((cyclopropyl-methyl)amino)-5-(3-(2-oxo-1,2,3,4-tetrahydroquinolin-6-yl)-1,2,4-oxadiazol-5-yl)benzonitrile]", "EC50": "< 316"}, {"smiles": "COc1cccnc1-c1noc(-c2ccc3c(c2)nnn3C2CCCC2)n1", "note": "[Compound 203, 1-cyclopentyl-5-[3-(3-methoxy-pyridin-2-yl)-1,2,4-oxadiazol-5-yl]-1H-1,2,3-benzotriazole]", "EC50": "> 316"}, {"smiles": "CC(F)(F)CNc1ccc(-c2nc(-c3ccc4c(c3)CCC(=O)N4)no2)cc1C#N", "note": "[Compound 347, 2-[(2,2-difluoropropyl)amino]-5-[3-(2-oxo-1,2,3,4-tetrahydro-quinolin-6-yl)-1,2,4-oxadiazol-5-yl]benzonitrile]", "EC50": "< 316"}, {"smiles": "CC(C)n1nnc2cc(-c3ncc(-c4cccc(F)c4)s3)ccc21", "note": "[Compound 110, 5-(3-fluorophenyl)-2-(1-isopropyl-1H-benzo[d][1,2,3]triazol-5-yl)thiazole]", "EC50": "> 316"}]}]}
